Test results as given in patent US4440757A, “Pharmaceutical composition comprising derivative of aminobenzoic acid for regulating prostaglandin” (priority 1978, dated 1984).

Test system: MH-134 tumor
Assay: Preventing the metastasis of a transplanted tumour
Type: in vivo, C3H/He mouse
Conditions: for Number of metastatic lesion: not administered 4.5
Experimental: Cells of MH-134 tumor were transplanted to a C3 H/He mouse from its caudal vein at a rate of 2×10^6 cells/animal. The present substance, Specimen No. 7, was administered to the mouse respectively, 6, 3 and one hours before, and 1, 3 and 6 hours after the transplantation once at a rate of 1000 mg/kg forcibly p.o.
The mouse was sacrificed on 14th day of the transplantation to extirpate the lungs to examine the number of the metastatic lesion.

Compound: O=C(O)c1ccc(NC2OC[C@@H](O)[C@H](O)[C@H]2O)cc1 (stereo partly drawn) [Specimen No. 7, Sodium p-aminobenzoate-N--D-xyloside]
- Rate of positive metastasis (1000 mg/kg p.o. 1 hour after, printed 7/10): 70%
- Rate of positive metastasis (1000 mg/kg p.o. 1 hour before, printed 7/9): 77.8%
- Rate of positive metastasis (1000 mg/kg p.o. 3 hours after, printed 9/10): 90%
- Rate of positive metastasis (1000 mg/kg p.o. 3 hours before, printed 8/9): 88.9%
- Rate of positive metastasis (1000 mg/kg p.o. 6 hours after, printed 10/10): 100%
- Rate of positive metastasis (1000 mg/kg p.o. 6 hours before transplantation, printed 10/10): 100%
- Number of metastatic lesion (1 hour after): 2.6
- Number of metastatic lesion (1 hour before): 2.2
- Number of metastatic lesion (3 hours after): 3.0
- Number of metastatic lesion (3 hours before): 1.9
- Number of metastatic lesion (6 hours after): 3.5
- Number of metastatic lesion (6 hours before): 2.3
